Literature values, collected in patent US20060177438A1, “Methods of altering absorption of hydrophobic compounds” (New England Medical Center, priority 2005, published 2006).

Conditions: cited from earlier work

For `CC(C)CCC[C@@H](C)[C@H]1CC[C@H]2[C@@H]3CC=C4C[C@@H](O)CC[C@]4(C)[C@H]3CC[C@]12C` [cholesterol], the “dietary cholesterol absorbed by the human intestine” value is listed as 34-57%.
